# Measurements taken from PMC9234961 (Journal of Medicinal Chemistry, 2022).
# Assays:
# kinases (468) [1] = target: kinases (468) (Homo sapiens, UniProt O00506); details: kinase YSK1 (Entrez STK25); compound concentration 1000 nM
# kinases (468) [2] = target: kinases (468) (Homo sapiens, UniProt O14920); details: IKK-beta (IKBKB); 1000 nM
# kinases (468) [3] = target: kinases (468) (Homo sapiens, UniProt O15075); details: DCAMKL1 (DCLK1); 1000 nM
# kinases (468) [4] = target: kinases (468) (Homo sapiens, UniProt O75716); details: kinase STK16 (Entrez STK16); compound concentration 1000 nM
# kinases (468) [5] = target: kinases (468) (Homo sapiens, UniProt P00533, L861Q); details: EGFR(L861Q); 1000 nM
# kinases (468) [6] = target: kinases (468) (Homo sapiens, UniProt P04629); details: kinase TRKA (Entrez NTRK1); compound concentration 1000 nM
# kinases (468) [7] = target: kinases (468) (Homo sapiens, UniProt P07332); details: FES; 1000 nM
# kinases (468) (Homo sapiens, UniProt P07332), sequence (P07332 whole entry): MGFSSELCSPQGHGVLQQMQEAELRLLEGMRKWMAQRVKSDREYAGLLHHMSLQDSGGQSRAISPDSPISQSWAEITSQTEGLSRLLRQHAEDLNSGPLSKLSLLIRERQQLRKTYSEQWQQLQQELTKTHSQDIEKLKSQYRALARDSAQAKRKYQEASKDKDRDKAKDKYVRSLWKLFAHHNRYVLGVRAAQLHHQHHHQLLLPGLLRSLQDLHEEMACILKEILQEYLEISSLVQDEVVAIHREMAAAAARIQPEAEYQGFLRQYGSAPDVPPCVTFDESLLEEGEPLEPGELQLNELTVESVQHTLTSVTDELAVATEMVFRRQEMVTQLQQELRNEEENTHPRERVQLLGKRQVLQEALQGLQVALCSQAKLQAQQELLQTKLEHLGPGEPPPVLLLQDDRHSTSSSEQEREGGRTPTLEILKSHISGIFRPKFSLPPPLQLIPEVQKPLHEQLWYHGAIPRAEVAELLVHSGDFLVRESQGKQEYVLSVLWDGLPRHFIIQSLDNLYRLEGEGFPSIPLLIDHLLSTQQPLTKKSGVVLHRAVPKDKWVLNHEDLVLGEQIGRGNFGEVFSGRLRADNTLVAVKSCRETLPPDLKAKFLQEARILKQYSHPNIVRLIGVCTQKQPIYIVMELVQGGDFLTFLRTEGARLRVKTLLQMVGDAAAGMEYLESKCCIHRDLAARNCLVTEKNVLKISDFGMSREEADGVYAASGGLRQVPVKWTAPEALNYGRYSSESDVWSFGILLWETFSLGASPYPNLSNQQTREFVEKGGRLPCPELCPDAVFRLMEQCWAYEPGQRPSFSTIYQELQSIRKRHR
# kinases (468) [8] = target: kinases (468) (Homo sapiens, UniProt P19784); details: CSNK2A2; 1000 nM
# kinases (468) [9] = target: kinases (468) (Homo sapiens, UniProt P21802); details: FGFR2; 1000 nM
# kinases (468) [10] = target: kinases (468) (Homo sapiens, UniProt P29317); details: EPHA2; 1000 nM
# kinases (468) (Homo sapiens, UniProt P29317), sequence (P29317 24-976): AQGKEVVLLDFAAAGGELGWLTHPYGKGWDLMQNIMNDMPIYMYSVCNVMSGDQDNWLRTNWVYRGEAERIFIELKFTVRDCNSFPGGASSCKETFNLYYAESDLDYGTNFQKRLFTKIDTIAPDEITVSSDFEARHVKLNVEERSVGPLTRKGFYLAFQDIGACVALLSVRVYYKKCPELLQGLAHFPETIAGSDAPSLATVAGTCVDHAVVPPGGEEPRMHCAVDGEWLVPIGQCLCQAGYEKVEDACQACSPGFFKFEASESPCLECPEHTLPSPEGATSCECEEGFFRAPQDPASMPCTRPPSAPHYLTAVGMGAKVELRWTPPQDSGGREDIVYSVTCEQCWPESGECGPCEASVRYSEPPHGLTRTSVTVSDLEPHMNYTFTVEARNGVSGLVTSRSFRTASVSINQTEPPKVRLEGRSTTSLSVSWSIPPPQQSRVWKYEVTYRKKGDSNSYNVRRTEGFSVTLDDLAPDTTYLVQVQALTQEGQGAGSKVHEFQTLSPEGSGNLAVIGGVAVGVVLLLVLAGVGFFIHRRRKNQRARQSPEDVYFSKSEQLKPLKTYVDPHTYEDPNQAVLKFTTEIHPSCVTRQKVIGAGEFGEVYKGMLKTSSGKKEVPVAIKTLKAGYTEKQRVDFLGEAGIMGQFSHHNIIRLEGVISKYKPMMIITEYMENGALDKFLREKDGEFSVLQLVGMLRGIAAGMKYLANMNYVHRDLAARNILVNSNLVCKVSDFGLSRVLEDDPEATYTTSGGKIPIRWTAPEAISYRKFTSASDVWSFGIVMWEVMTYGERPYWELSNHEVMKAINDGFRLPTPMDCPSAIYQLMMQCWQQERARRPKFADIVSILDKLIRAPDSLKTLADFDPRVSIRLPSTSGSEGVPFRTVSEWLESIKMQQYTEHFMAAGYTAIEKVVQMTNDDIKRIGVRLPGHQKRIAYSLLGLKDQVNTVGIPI
# kinases (468) [11] = target: kinases (468) (Homo sapiens, UniProt P36888, D835H); details: FLT3(D835H); 1000 nM
# kinases (468) [12] = target: kinases (468) (Homo sapiens, UniProt P41240); details: CSK; 1000 nM
# kinases (468) (Homo sapiens, UniProt P41240), sequence (P41240 whole entry): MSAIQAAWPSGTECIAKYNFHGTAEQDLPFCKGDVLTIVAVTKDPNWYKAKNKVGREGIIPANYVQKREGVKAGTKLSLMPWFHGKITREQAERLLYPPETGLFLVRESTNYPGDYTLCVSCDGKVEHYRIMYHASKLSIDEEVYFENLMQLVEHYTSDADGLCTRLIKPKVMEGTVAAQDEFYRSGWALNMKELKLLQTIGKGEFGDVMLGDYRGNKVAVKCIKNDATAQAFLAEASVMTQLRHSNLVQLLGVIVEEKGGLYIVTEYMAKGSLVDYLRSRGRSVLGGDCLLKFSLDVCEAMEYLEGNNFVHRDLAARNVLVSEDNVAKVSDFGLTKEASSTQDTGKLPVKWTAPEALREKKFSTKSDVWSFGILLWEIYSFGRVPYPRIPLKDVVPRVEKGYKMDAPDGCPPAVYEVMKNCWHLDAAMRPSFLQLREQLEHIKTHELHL
# kinases (468) [13] = target: kinases (468) (Homo sapiens, UniProt P42336, E542K); details: PIK3CA(E542K); 1000 nM
# kinases (468) [14] = target: kinases (468) (Homo sapiens, UniProt P48730); details: CSNK1D; 1000 nM
# kinases (468) [15] = target: kinases (468) (Homo sapiens, UniProt P51813); details: BMX; 1000 nM
# kinases (468) [16] = target: kinases (468) (Homo sapiens, UniProt Q02156); details: PRKCE; 1000 nM
# kinases (468) [17] = target: kinases (468) (Homo sapiens, UniProt Q05397); details: FAK (PTK2); 1000 nM
# kinases (468) [18] = target: kinases (468) (Homo sapiens, UniProt Q05655); details: PRKCD; 1000 nM
# kinases (468) [19] = target: kinases (468) (Homo sapiens, UniProt Q08881); details: ITK; 1000 nM
# kinases (468) [20] = target: kinases (468) (Homo sapiens, UniProt Q13464); details: kinase ROCK1 (Entrez ROCK1); compound concentration 1000 nM
# kinases (468) [21] = target: kinases (468) (Homo sapiens, UniProt Q13470); details: kinase TNK1 (Entrez TNK1); compound concentration 1000 nM
# kinases (468) [22] = target: kinases (468) (Homo sapiens, UniProt Q14004); details: CDC2L5 (CDK13); 1000 nM
# kinases (468) [23] = target: kinases (468) (Homo sapiens, UniProt Q6ZN16); details: MAP3K15; 1000 nM
# kinases (468) [24] = target: kinases (468) (Homo sapiens, UniProt Q7KZI7); details: MARK2; 1000 nM
# kinases (468) [25] = target: kinases (468) (Homo sapiens, UniProt Q86V86); details: PIM3; 1000 nM
# kinases (468) [26] = target: kinases (468) (Homo sapiens, UniProt Q8IU85); details: CAMK1D; 1000 nM
# kinases (468) [27] = target: kinases (468) (Homo sapiens, UniProt Q8TDX7); details: NEK7; 1000 nM
# kinases (468) [28] = target: kinases (468) (Homo sapiens, UniProt Q96D53); details: ADCK4; 1000 nM
# kinases (468) [29] = target: kinases (468) (Homo sapiens, UniProt Q99759); details: MAP3K3; 1000 nM
# kinases (468) (Homo sapiens, UniProt Q99759), sequence (Q99759 whole entry): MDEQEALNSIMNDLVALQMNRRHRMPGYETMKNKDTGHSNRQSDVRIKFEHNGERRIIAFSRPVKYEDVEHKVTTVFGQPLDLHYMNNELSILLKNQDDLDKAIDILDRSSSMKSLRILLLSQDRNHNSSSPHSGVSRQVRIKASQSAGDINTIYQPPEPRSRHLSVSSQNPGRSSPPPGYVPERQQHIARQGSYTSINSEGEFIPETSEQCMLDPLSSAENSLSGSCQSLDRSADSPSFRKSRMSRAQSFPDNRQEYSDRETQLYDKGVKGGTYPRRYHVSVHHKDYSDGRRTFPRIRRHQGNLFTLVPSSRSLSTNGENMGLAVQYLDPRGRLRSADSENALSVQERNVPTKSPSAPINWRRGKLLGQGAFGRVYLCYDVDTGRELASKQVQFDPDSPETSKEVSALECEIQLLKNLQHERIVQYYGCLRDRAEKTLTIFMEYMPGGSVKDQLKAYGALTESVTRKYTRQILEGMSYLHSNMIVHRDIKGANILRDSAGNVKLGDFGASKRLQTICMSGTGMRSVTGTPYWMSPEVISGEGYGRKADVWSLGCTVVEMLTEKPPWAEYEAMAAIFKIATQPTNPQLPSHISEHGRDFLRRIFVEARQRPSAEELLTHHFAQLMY
# kinases (468) [30] = target: kinases (468) (Homo sapiens, UniProt Q9BWU1); details: CDK11 (CDK19); 1000 nM
# kinases (468) [31] = target: kinases (468) (Homo sapiens, UniProt Q9UIK4); details: DAPK2; 1000 nM
# kinases (468) [32] = target: kinases (468) (Homo sapiens, UniProt Q9UPE1); details: kinase SRPK3 (Entrez SRPK3); compound concentration 1000 nM
# kinases (468) [33] = target: kinases (468) (Homo sapiens, UniProt Q9UPZ9); details: ICK; 1000 nM
# kinases (468) (Homo sapiens, UniProt Q9UPZ9), sequence (Q9UPZ9 whole entry): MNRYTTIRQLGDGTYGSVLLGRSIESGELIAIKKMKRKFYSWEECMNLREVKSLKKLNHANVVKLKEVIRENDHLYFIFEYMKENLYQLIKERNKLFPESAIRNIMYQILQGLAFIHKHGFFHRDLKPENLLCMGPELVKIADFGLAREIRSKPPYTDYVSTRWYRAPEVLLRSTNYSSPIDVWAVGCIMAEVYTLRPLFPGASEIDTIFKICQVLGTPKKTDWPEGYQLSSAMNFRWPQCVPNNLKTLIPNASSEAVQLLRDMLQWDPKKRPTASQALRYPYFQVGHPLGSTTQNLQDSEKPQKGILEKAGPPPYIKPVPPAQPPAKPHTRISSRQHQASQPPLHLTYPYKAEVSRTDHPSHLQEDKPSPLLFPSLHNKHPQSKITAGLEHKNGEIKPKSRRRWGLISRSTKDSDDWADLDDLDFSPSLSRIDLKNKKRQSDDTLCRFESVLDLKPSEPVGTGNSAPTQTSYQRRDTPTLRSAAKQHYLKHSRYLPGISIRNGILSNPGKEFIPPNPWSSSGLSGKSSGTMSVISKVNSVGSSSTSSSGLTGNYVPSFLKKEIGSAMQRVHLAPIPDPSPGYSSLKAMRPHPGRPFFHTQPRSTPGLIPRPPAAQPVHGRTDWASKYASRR
# kinases (468) [34] = target: kinases (468) (Homo sapiens, UniProt Q9Y2U5); details: MAP3K2; 1000 nM
# kinases (468) [35] = target: kinases (468) (Homo sapiens, UniProt Q9Y4K4); details: MAP4K5; 1000 nM
# kinases (468) (Homo sapiens, UniProt Q9Y4K4), sequence (Q9Y4K4 whole entry): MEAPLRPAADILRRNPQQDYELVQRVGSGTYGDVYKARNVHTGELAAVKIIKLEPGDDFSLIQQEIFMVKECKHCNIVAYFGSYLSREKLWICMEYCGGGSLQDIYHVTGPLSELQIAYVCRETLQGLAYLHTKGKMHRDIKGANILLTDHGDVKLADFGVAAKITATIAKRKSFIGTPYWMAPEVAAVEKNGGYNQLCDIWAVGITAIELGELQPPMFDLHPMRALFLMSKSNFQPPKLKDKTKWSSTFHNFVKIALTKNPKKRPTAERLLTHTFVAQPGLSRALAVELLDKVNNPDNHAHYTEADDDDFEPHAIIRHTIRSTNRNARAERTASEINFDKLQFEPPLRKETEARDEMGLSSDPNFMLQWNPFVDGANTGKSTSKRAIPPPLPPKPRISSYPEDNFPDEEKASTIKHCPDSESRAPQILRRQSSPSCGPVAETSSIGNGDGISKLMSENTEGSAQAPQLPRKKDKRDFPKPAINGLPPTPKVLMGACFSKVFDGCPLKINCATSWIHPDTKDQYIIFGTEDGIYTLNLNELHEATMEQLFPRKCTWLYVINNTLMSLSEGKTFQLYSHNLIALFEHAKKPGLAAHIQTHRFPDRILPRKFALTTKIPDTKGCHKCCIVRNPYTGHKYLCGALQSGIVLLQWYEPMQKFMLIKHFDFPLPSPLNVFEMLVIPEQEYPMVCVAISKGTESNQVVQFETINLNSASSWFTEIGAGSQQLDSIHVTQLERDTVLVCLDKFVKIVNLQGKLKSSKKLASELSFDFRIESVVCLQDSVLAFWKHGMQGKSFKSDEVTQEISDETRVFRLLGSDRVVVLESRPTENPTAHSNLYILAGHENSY
# kinases (468) (Homo sapiens, UniProt O15075), sequence (O15075 whole entry): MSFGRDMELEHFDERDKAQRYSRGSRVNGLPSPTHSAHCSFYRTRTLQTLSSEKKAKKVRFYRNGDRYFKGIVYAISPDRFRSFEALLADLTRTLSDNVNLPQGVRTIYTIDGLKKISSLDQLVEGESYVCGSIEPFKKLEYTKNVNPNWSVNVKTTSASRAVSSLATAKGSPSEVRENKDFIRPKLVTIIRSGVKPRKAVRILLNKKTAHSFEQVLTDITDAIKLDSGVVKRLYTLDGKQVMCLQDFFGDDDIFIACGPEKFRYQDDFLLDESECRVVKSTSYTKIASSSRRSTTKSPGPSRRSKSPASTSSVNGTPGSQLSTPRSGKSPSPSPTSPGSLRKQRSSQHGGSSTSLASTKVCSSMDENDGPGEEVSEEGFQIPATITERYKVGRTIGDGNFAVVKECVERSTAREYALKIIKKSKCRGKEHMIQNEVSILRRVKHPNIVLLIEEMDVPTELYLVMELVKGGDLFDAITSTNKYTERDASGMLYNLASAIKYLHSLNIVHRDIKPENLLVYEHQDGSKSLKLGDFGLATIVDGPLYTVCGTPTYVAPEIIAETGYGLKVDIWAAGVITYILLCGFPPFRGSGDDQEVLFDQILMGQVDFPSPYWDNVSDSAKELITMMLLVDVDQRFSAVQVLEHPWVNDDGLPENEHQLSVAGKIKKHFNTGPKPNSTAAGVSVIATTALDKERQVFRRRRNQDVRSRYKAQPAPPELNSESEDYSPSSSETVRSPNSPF
smiles,measurement,setting,value
C[C@H]1C[C@@H](O)CN(c2ncc(Cl)c(Nc3ccc4c(c3)c3c(c(=O)n4C)OCC(F)(F)[C@H](C4CC4)N3)n2)C1 [CCT373566_9A],Percent Control,kinases (468) [1],91%
same,Percent Control,kinases (468) [2],91%
same,Percent Control,kinases (468) [3],100%
same,Percent Control,kinases (468) [4],88%
same,Percent Control,kinases (468) [5],100%
same,Percent Control,kinases (468) [6],100%
same,Percent Control,kinases (468) [7],100%
same,Percent Control,kinases (468) [8],100%
same,Percent Control,kinases (468) [9],100%
same,Percent Control,kinases (468) [10],99%
same,Percent Control,kinases (468) [11],90%
same,Percent Control,kinases (468) [12],86%
same,Percent Control,kinases (468) [13],83%
same,Percent Control,kinases (468) [14],99%
same,Percent Control,kinases (468) [15],100%
same,Percent Control,kinases (468) [16],98%
same,Percent Control,kinases (468) [17],96%
same,Percent Control,kinases (468) [18],100%
same,Percent Control,kinases (468) [19],100%
same,Percent Control,kinases (468) [20],93%
same,Percent Control,kinases (468) [21],92%
same,Percent Control,kinases (468) [22],99%
same,Percent Control,kinases (468) [23],99%
same,Percent Control,kinases (468) [24],93%
same,Percent Control,kinases (468) [25],100%
same,Percent Control,kinases (468) [26],92%
same,Percent Control,kinases (468) [27],96%
same,Percent Control,kinases (468) [28],93%
same,Percent Control,kinases (468) [29],100%
same,Percent Control,kinases (468) [30],99%
same,Percent Control,kinases (468) [31],99%
same,Percent Control,kinases (468) [32],90%
same,Percent Control,kinases (468) [33],100%
same,Percent Control,kinases (468) [34],95%
same,Percent Control,kinases (468) [35],85%
